# Reference: patent US11197881B2 (CALIFORNIA INSTITUTE OF TECHNOLOGY, priority 2016, dated 2021)
# Entries after “also recorded” stand apart in the source; their conditions may differ.
# Experiments:
# [1] = tested on: mouse lymphatic fibroblast (MLF) cells; conditions: 1 uM, FIG. 7E
# Experimental: With reference to FIG. 7E, MLF cells having a silenced X chromosome were assayed for reactivation of the Gpc4 gene after incubation with SAHA at 2 uM, RGFP966 at 3 uM, RG2833 (RGFP109) at 300 nM, PCI-24781 (Abexinostat) at 300 nM, CUDC-101 at 400 nM, Resminostat at 100 nM, Mocetinostat (MGCD0103) at 10 uM, HPOB (4-[(hydroxyamino)carbonyl]-N-(2-hydroxyethyl)-N-phenyl-benzeneacetamide) at 5 uM, Entinostat (MS0275) at 2 uM, Droxinostat at 20 uM, 4SC-202 at 2 uM, Trichostatin A (TSA) at 5 uM, Rocilinostat (ACY-1215) at 100 nM, Quisinostat (JNJ-26481585) at 100 nM, or Pracinostat (SB939) at 1 uM.
# 5,000 Mouse MLF cells were plated on a poly-D-lysine (Sigma) and 0.2% gelatin (Sigma)-coated #1.5 coverslip placed into wells of a 24-well plate containing HEK media (DMEM, 10% Gemini Benchmark FBS, 1×L-glutamine, 1× sodium pyruvate, 1×NEAA, lx Pen/Strep; Life Technologies unless otherwise indicated). After 16 hours, inhibitors were added into the media and incubated the cells for 48 hours. Unless, otherwise indicated, the inhibitors and the concentration used were: 5-Azacytidine (6 μM; Sigma, A2385), 5-Aza-2′-deoxycytidine (0.3 μM; Sigma, A3656), RG 108 (200 μM; Abcam, ab141013), Trichostatin A (5 μM; Sigma, T8552), and Scriptaid (100 nM; Sigma, S7817).
# human fibroblast cells = experiment: X chromosome reactivation (active PGK1 loci, MeCP2 mRNA) in human fibroblast cells having a silenced X chromosome; assay type: cell-based; conditions: for percentage of reactivated human fibroblasts (active PGK1 loci) with treatment time: simultaneous treatment with 5-aza-2'-dc, 48 h, 72 h, 7 days, FIG. 7F; for activation of the silenced X chromosome: simultaneous treatment with DNMT1 inhibitor 5-aza-2'-dc, human fibroblast cells
# Experimental: (§1) FIG. 7F is a graph of the percentage of reactivated cells (measured as the number of active phosphoglycerate kinase 1 (PGK1) loci for a population of 50 human fibroblast cells having a silenced X chromosome after the simultaneous treatment of DMSO (as a control), the DNMT1 inhibitor (5-aza-2-dc) and the HDAC inhibitor SAHA or RGFP966 for 48 hours (h), 72 hours, and 7 days as indicated, with the number of active PGK1 loci greater than 2 shown in grey, the number of PGK1 loci equal to 2 shown in orange, and the number of PGK1 loci equal to 1 shown in blue, according to embodiments of the present invention.
# FIG. 7G is a graph quantifying the expression level of MeCP2 mRNA (relative to control) of reactivated human fibroblast cells having a silenced X chromosome after simultaneous treatment with DMSO (control), the DNMT1 inhibitor (5-aza-2-dc) and the HDAC inhibitor SAHA or RGFP966 for 7 days for a population of 50 cells, according to embodiments of the present invention.
# (§2) Cells were stained for target mRNAs (e.g., X-linked Gpc4 mRNA, X-linked MeCP2 mRNA, or as indicated) and siRNA-targeted mRNA by FISH and imaged. Images were then analyzed using Matlab R2013b (described below). In the case of siRNA targeting, cells were selected if the copy number of the targeted mRNA was less than 30% of the level of the no siRNA treated cells and if they induced Xist expression. Within these cells, the copy number of target mRNAs were quantified using a peak finding method (described below) and compared across conditions. The mRNA levels were quantified for 50 individual cells.
# The number of active X chromosomes was determined by RNA FISH with probes against the intronic region of Pgk1/PGK1 RNA using smFISH. The spots were then identified using a 2D peak finding algorithm that identifies local maximal signals within the cell. Once regional maxima were identified, the number of spots was counted for each cell. Cells were selected in the G1 phase of the cell cycle by co-immunostaining the cells with Cyclin E antibodies (Abcam; ab33911 for mouse cells; ab32103 for human cells) and selecting Cyclin E positive cells.
# [2] = tested on: mouse post-mitotic neurons; experiment: X chromosome reactivation (active PGK1 loci, MeCP2 mRNA) in mouse post-mitotic neurons having a silenced X chromosome; assay type: cell-based; conditions: simultaneous treatment with DNMT1 inhibitor 5-aza-2'-dc
# Experimental: as §1, with “7H” for “7F”, “mouse post-mitotic neuronal” for “human fibroblast”
# FIG. 7I is a graph quantifying the expression level of MeCP2 mRNA in mouse post-mitotic neurons having a silenced X chromosome after simultaneous treatment with DMSO (control), the DNMT1 inhibitor (5-aza-2-dc) and the HDAC inhibitor SAHA or RGFP966 for 7 days for a population of 50 cells, with the relative expression calculated by normalizing reactivated female post-mitotic neurons to male post-mitotic neurons, according to embodiments of the present invention.
# Cells were stained for target mRNAs (e.g., X-linked Gpc4 mRNA, X-linked MeCP2 mRNA, or as indicated) and siRNA-targeted mRNA by FISH and imaged. Images were then analyzed using Matlab R2013b (described below). […] The mRNA levels were quantified for 50 individual cells. […]
# [3] = tested on: human iPS-derived neurons; experiment: X chromosome reactivation (PGK1 and MeCP2 mRNA staining) in human iPS-derived neurons having a silenced X chromosome; assay type: cell-based; conditions: simultaneous treatment with DNMT1 inhibitor 5-aza-2'-dc
# Text: FIG. 7K is a graph quantifying the expression level of MeCP2 mRNA in human iPSC-derived neurons having a silenced X chromosome after simultaneous treatment with the DNMT1 inhibitor (5-aza-2-dc) and the HDAC inhibitor SAHA for 7 days for a population of 50 cells, with the relative expression calculated by normalizing the neurons (two spots of active PGK1 loci) to non-reactivated (treated) neurons (one spot of active PGK1 locus), according to embodiments of the present invention.
# as §2
# The number of active X chromosomes was determined by RNA FISH with probes against the intronic region of Pgk1/PGK1 RNA using smFISH. […] Once regional maxima were identified, the number of spots was counted for each cell. […]
# [4] = tested on: mouse lymphatic fibroblast (MLF) cells; experiment: X-chromosome reactivation assay (single molecule RNA FISH of X-linked mRNA) in MLF cells having silenced X genes; assay type: cell-based; conditions: for reactivation of silenced X-chromosome gene Gpc4 (Gpc4 mRNA) compared with Scriptaid alone: in combination with one of the DNMT1 inhibitors 5-aza, 5-aza-2'-dc, RG108 or SGI-1027, FIGS. 7A-7B
# Experimental: Coverslips from siRNA transfection or inhibitor treatment were fixed in Histochoice (Sigma) for 10 min, washed thoroughly in PBS, and dehydrated in ethanol for storage until FISH staining. Single molecule RNA Fluorescence in situ hybridization (FISH) experiments were done using QuantiGene ViewRNA ISH Cell Assay (Affymetrix) and QuantiGene ViewRNA ISH Cell 740 Module (Affymetrix) according to manufacturer's protocol. Specifically, cells fixed on coverslips were first permeabilized with Detergent Solution QC at room temperature for 5 min, and then incubated with desired mixture of probe set (Affymetrix) in Probe Set Diluent QF at 40° C. for 3 h, followed by incubated with PreAmplifier Mix at 40° C. for 30 min, Amplifier Mix at 40° C. for 30 min, and Label Probe Mix at 40° C. for 30 min sequentially. For DAPI staining, coverslips were incubated in 30 nM DAPI in PBS at room temperature for 15-20 min. Probe sets and conjugated fluorophores (excitation wavelengths) for FISH were TYPE 4-GPC4, MECP2, SMC1A (488 nm), TYPE 10-ATRX (740 nm), and TYPE 6-EMD (650 nm). Cells were stained for target mRNAs (e.g., X-linked Gpc4 mRNA, X-linked MeCP2 mRNA, or as indicated) and siRNA-targeted mRNA by FISH and imaged. Images were then analyzed using Matlab R2013b (described below). In the case of siRNA targeting, cells were selected if the copy number of the targeted mRNA was less than 30% of the level of the no siRNA treated cells and if they induced Xist expression. Within these cells, the copy number of target mRNAs were quantified using a peak finding method (described below) and compared across conditions. The mRNA levels were quantified for 50 individual cells. All image analysis was carried out using Matlab (version R2013b) utilizing built-in functions from the Image Processing toolbox. […] Once regional maxima were identified, the number of spots was counted for each cell. The percentage of X-reactivation is calculated by normalizing the average number of spots of each condition to the average number of spots in untreated cells, and subtracting the value by 1.
smiles,measurement,setting,value
CCCCc1nc2cc(/C=C/C(=O)NO)ccc2n1CCN(CC)CC [Pracinostat],cytotoxicity (cell death),[1],"cytotoxic, causing cell death"
O=C(CCCCCCC(=O)Nc1ccccc1)NO [SAHA],percentage of reactivated human fibroblasts (active PGK1 loci) with treatment time,human fibroblast cells,increase in reactivation
same,activation of the silenced X chromosome,human fibroblast cells,activation (or re-activation) of the X chromosome
same,activation of the silenced X chromosome,[2],activation of the X chromosome
same,activation of the silenced X chromosome,[3],activation of the X chromosome
O=C(CCCCCN1C(=O)c2cccc3cccc(c23)C1=O)NO [Scriptaid],reactivation of the Xist-dependent silent Gpc4 gene as measured by levels of Gpc4 mRNA,"[4]; HDAC inhibitor alone, FIGS. 7A-7B",expression of Gpc4; also recorded: reactivation of the Xist-dependent silent Gpc4 gene
same,reactivation of silenced X-chromosome gene Gpc4 (Gpc4 mRNA) compared with Scriptaid alone,[4],reactivated to a higher level of reactivation
Nc1cc(F)ccc1NC(=O)/C=C/c1cnn(C/C=C/c2ccccc2)c1 [RGFP966],percentage of reactivated human fibroblasts (active PGK1 loci) with treatment time,human fibroblast cells,increase in reactivation
same,activation of the silenced X chromosome,human fibroblast cells,activation (or re-activation) of the X chromosome
same,activation of the silenced X chromosome,[2],activation of the X chromosome
same,activation of the silenced X chromosome,[3],activation of the X chromosome
CC(/C=C/C(=O)NO)=C\[C@@H](C)C(=O)c1ccc(N(C)C)cc1 [Trichostatin A],reactivation of silenced X-chromosome gene Gpc4 (Gpc4 mRNA) compared with Scriptaid alone,[4],reactivated to a higher level of reactivation
